The source of these data is paper PMC9352027, “Targeting lipid biosynthesis pathways for hepatitis B virus cure” (PLoS ONE, 2022).

pEC50: −log10 of the molar value. Like-named read-outs stand apart in the source and are kept apart here.

Data set [1] has as its system HBV-infected HepG2-NTCP cells. Description: Cell viability by CellTiter Glo. Type of data set: cell-based, human. As to conditions: three days of treatment. The method, then:
(§1) Production of wild-type HBV virions from HepAD38 cells was performed as previously described. HepG2-NTCP cells were bulk plated on collagen coated flasks at a density of 6x10^6 cells/ T175 flask. Following a 3-day incubation at 37°C, cells were infected with genotype D (AD38) virus at […] in the presence of 4% PEG8000 and 2.5% DMSO. HepG2-NTCP cells were washed 3 times with OPTI-MEM and maintained in Dulbecco’s modified Eagle’s medium (DMEM) supplemented with 2% FBS and 2.5% DMSO for the following 4 days. HBV-infected HepG2-NTCP cells were trypsinized, resuspended in DMEM supplemented with 2% FBS and 1% DMSO, and seeded onto serially diluted small molecule inhibitors at a 0.5% final DMSO concentration (S1 Table) in 384-well collagen coated plates at a density of 20,000 cells/well for 3 additional days.
(§2) Cells were analyzed for cell viability by addition of CellTiter Glo (Promega) to the assay plates and analyzed using an Envision plate reader (Perkin Elmer). CC50 values were calculated from the fit of the dose−response curves to a four-parameter equation. All CC50 values represent geometric mean values of a minimum of four determinations.
(§3) (A) Schematic overview of the pathways involved in lipid biosynthesis, such as DNL, TG esterification and cholesterol biosynthesis. […] (B-D) HepG2-NTCP cells infected with HBV for three days were treated with selected compounds in an eight-point dose response. After three days of treatment, extracellular HBsAg and HBeAg levels as well as cell viability were measured.

The subject of data set [2] is HBeAg in HBV-infected HepG2-NTCP cells. Kind of data set: microbe, parasite or virus in culture. As to conditions: read-out: HBeAg, EC50. Type of data set: cell-based, Hepatitis B virus genotype D (AD38). As for the experimental part:
as §1
(§4) Cell culture supernatant (3 μL) was transferred to two 1536-well plates and HBsAg and HBeAg levels subsequently measured by HTRF (Cisbio). HBsAg was measured using Terbium conjugated (XTL-17) and D2 receptor conjugated (XTL19) anti-HBsAg antibodies, while HBeAg was measured using Terbium conjugated (GWB-F19420, Genway Biotech) and D2 receptor conjugated (GWB-24DEF, Genway Biotech) anti-HBeAg antibodies. […] was measured using an Envision plate reader at emissions of 665 nm and 615 nm. The ratio of 665/615 was used to plot compound dose response curves and EC50 values were calculated from the fit of the dose−response curves to a four-parameter equation.
as §3

In data set [3] the test system is HBsAg secretion in HBV-infected HepG2-NTCP cells. Kind of data set: microbe, parasite or virus in culture. It is filed as cell-based, Hepatitis B virus genotype D (AD38). As to conditions: for pEC50: read-out: HBsAg, EC50; for inhibition of HBsAg secretion: maximal (up to). As for the experimental part: as §1, §4, §3
Data set [4] is described as follows: Cell viability by CellTiter Glo. It is filed as cell-based, human. As to conditions: human; HBV-infected HepG2-NTCP cells, three days of treatment. As for the experimental part:
as §1, §2, §3

Setting [5] is: HBV-infected HepG2-NTCP cells, three days of treatment, extracellular.

Consider `COC(=O)c1cc(Cl)c(O)c(S(=O)(=O)Nc2cc(-c3ccccc3)c(F)cc2F)c1` [ACLY Inhibitor, methyl 3-chloro-5-(N-(4,6-difluoro-[1,1'-biphenyl]-3-yl)sulfamoyl)-4-hydroxybenzoate], for which the CC50 (usually the concentration that lowers cell viability or growth by half) in data set [1] is over 10 µM. For the same compound, the pEC50 in data set [2] (setting [5]) and in data set [3] (setting [5]) was under 5.00 throughout.
In data set [1], `CC1=NN(c2ccc(OC(F)F)c(-c3cccnc3)c2)C(=O)C1C(=O)Nc1cccc(C(C)(F)F)c1` (centres unmarked) [ACSS2 Inhibitor, N-(3-(1,1-difluoroethyl)phenyl)-1-(4-(difluoromethoxy)-3-(pyridin-3-yl)phenyl)-3-methyl-5-oxo-4,5-dihydro-1H-pyrazole-4-carboxamide] gave a CC50 of over 10 µM. The pEC50 in data set [2] (setting [5]) and in data set [3] (setting [5]) was under 5.00 throughout.
On to `C=C(C)[C@@H]1CC[C@]2(CO)CC[C@]3(C)[C@H](CC[C@@H]4[C@@]5(C)CC[C@H](O)C(C)(C)[C@@H]5CC[C@]43C)[C@@H]12` [Betulin, (1R,3aS,5aR,5bR,7aR,9S,11aR,11bR,13aR,13bR)-3a-(hydroxymethyl)-5a,5b,8,8,11a-pentamethyl-1-(prop-1-en-2-yl)icosahydro-1H-cyclopenta[a]chrysen-9-ol], for which the CC50 at 3 days in data set [4] is over 10 µM. Further, the pEC50 (usually the negative decadic logarithm of the EC50, by convention in mol/L) in data set [2] (Hepatitis B virus, 72 h) is under 5.00; in data set [3] (Hepatitis B virus, 72 h), under 5.00.
With `CC(C)N(C)c1nc2cc(C(=O)O)ccc2nc1-c1ccc(F)cc1` [BioE-115, 2-(4-fluorophenyl)-3-(isopropyl(methyl)amino)quinoxaline-6-carboxylic acid], the CC50 in data set [1] was over 10 µM. Moreover, the pEC50 in data set [2] (setting [5]) and in data set [3] (setting [5]) was under 5.00 each time.
In data set [1], `O=C(O)c1ccccc1NS(=O)(=O)c1ccc(Cl)c([N+](=O)[O-])c1` [CPT2 Inhibitor, 2-((4-chloro-3-nitrophenyl)sulfonamido)benzoic acid] yielded a CC50 of over 10 µM. Besides, the pEC50 in data set [2] (setting [5]) and in data set [3] (setting [5]) was under 5.00 in each case.
Regarding `Nc1ncnc2c1C(=O)N(c1ccc([C@H]3CC[C@H](CC(=O)O)CC3)cc1)CCO2` [DGAT1 Inhibitor, 2-((1r,4r)-4-(4-(4-amino-5-oxo-7,8-dihydropyrimido[5,4-f][1,4]oxazepin-6(5H)-yl)phenyl)cyclohexyl)acetic acid], the pEC50 in data set [2] (setting [5]) and in data set [3] (setting [5]) was under 5.00 in each case.
For `CC1(NC(=O)c2ccc3c(-c4ccccc4Cl)cn(-c4ccc(F)cc4)c3c2)CCS(=O)(=O)C1` (centres unmarked) [DGAT2 Inhibitor, 3-(2-chlorophenyl)-1-(4-fluorophenyl)-N-(3-methyl-1,1-dioxidotetrahydrothiophen-3-yl)-1H-indole-6-carboxamide], in data set [1], the CC50 is over 10 µM. Moreover, the negative-log EC50 (pEC50) in data set [2] (setting [5]) and in data set [3] (setting [5]) was under 5.00 each time.
In data set [4], `CCOC(=O)[C@@]1(CCCCCCOc2ccc(Cl)cc2)CO1` [Etomoxir, ethyl (R)-2-(6-(4-chlorophenoxy)hexyl)oxirane-2-carboxylate] returned a CC50 at 3 days of over 10 µM. The negative logarithm of the EC50 (pEC50) is under 5.00 in data set [2] (Hepatitis B virus, 72 h) and under 5.00 in data set [3] (Hepatitis B virus, 72 h).
In data set [1], `Cc1cc(C)c(-c2[nH]c(C3CC3)nc2C)cc1C(=O)N1CC(F)(c2ccc(C#N)cc2)C1` [FASN inhibitor, 4-(1-(5-(2-cyclopropyl-4-methyl-1H-imidazol-5-yl)-2,4-dimethylbenzoyl)-3-fluoroazetidin-3-yl)benzonitrile] showed a CC50 of over 10 µM. Moreover, the pEC50 in data set [2] (setting [5]) is under 5.00. Also, in data set [3] (HBV-infected HepG2-NTCP cells), the “selectivity HBsAg versus HBeAg” value was “selective for HBsAg” and the “inhibition of HBsAg secretion” value was “up to 80%”. Further, the pEC50 in data set [3] (setting [5]) is 7.09.
As for `CCCCCCCCc1ccc(CC[C@](N)(CO)COP(=O)(O)O)cc1` [FTY720 (S)-phosphate, (S)-2-amino-2-(hydroxymethyl)-4-(4-octylphenyl)butyl dihydrogen phosphate], the CC50 in data set [1] is over 10 µM. Also, the pEC50 in data set [2] (setting [5]) and in data set [3] (setting [5]) was under 5.00 each time.
For the compound `CCCCCCCCc1ccc(CCC(N)(CO)CO)cc1` [FTY720, 2-amino-2-(4-octylphenethyl)propane-1,3-diol], the CC50 at 3 days in data set [4] is over 10 µM. For the same compound, the pEC50 in data set [2] (Hepatitis B virus, 72 h) was under 5.00; in data set [3] (Hepatitis B virus, 72 h), under 5.00.
Regarding `CCCc1cc(-c2nc(-c3ccc(C)cc3)cs2)ccn1` [Fatostatin, 2-(2-propylpyridin-4-yl)-4-(p-tolyl)thiazole], the CC50 at 3 days in data set [4] is over 10 µM. Further, the pEC50 was under 5.00 in data set [2] (Hepatitis B virus, 72 h) and under 5.00 in data set [3] (Hepatitis B virus, 72 h).
As to `Cc1nn(C)c2nc(NNC(=O)Nc3cc(Cl)nc(Cl)c3)cc(C(C)C)c12` [JTE-013, N-(2,6-dichloropyridin-4-yl)-2-(4-isopropyl-1,3-dimethyl-1H-pyrazolo[3,4-b]pyridin-6-yl)hydrazine-1-carboxamide], the CC50 in data set [1] was over 10 µM. Besides, the figures for the negative-log EC50 (pEC50) in data set [2] (setting [5]) and in data set [3] (setting [5]) were under 5.00 and 5.17, respectively.
For the compound `C[C@H]1CCN1c1nc(N2C[C@@H]3[C@@H](CC(=O)O)[C@@H]3C2)cc(C(F)(F)F)n1` [KHK Inhibitor, 2-((1R,5S,6R)-3-(2-((S)-2-methylazetidin-1-yl)-6-(trifluoromethyl)pyrimidin-4-yl)-3-azabicyclo[3.1.0]hexan-6-yl)acetic acid], the pEC50 in data set [2] (setting [5]) and in data set [3] (setting [5]) was under 5.00 throughout.
Compound `CCOC(=O)c1ccc(CN(Cc2ccc(-c3cccc(S(C)(=O)=O)c3)cc2)S(=O)(=O)c2c(C)cc(C)cc2C)o1` [LXR Inverse Agonist, ethyl 5-(((2,4,6-trimethyl-N-((3'-(methylsulfonyl)-[1,1'-biphenyl]-4-yl)methyl)phenyl)sulfonamido)methyl)furan-2-carboxylate] came in with a CC50 in data set [1] of over 10 µM. The pEC50 in data set [2] (setting [5]) and in data set [3] (setting [5]) was under 5.00 in each case.
As to `O=C(O)C[C@H]1CC[C@H](c2ccc(-c3ccc(Nc4ccc(C(F)(F)F)nc4)cn3)cc2)CC1` [Pradagilast, 2-((1r,4r)-4-(4-(5-((6-(trifluoromethyl)pyridin-3-yl)amino)pyridin-2-yl)phenyl)cyclohexyl)acetic acid], the CC50 at 3 days in data set [4] is over 10 µM. For the same compound, the pEC50 in data set [2] (Hepatitis B virus, 72 h) was under 5.00; in data set [3] (Hepatitis B virus, 72 h), under 5.00.
`CCCCCCCCCCCCCCCCCCCC(=O)N[C@H]1CC[C@@]2(C)[C@@H](C1)C[C@@H](O)[C@@H]1[C@@H]2C[C@H](O)[C@]2(C)[C@@H]([C@H](C)CCC(=O)O)CC[C@@H]12` [SCD1 Inhibitor, (R)-4-((3S,5S,7R,8R,9S,10S,12S,13R,14S,17R)-7,12-dihydroxy-3-icosanamido-10,13-dimethylhexadecahydro-1H-cyclopenta[a]phenanthren-17-yl)pentanoic acid] yielded a CC50 in data set [1] of over 10 µM. In addition, the pEC50 in data set [2] (setting [5]) and in data set [3] (setting [5]) was under 5.00 throughout.
`CCN(CC)Cc1ccc(C(=O)N(CCc2ccccc2OC)[C@@H]2CCNC2)cc1` [SKI-1/S1P inhibitor, (R)-4-((diethylamino)methyl)-N-(2-methoxyphenethyl)-N-(pyrrolidin-3-yl)benzamide] registered a CC50 in data set [1] of over 10 µM. Also, in data set [2] (setting [5]), the pEC50 was under 5.00. In addition, in data set [3] (HBV-infected HepG2-NTCP cells), the “selectivity HBsAg versus HBeAg” value is “selective for HBsAg” and the “inhibition of HBsAg secretion” value was “up to 80%”. Further, the pEC50 in data set [3] (setting [5]) is 6.10.
Turning to `Oc1ccc(Nc2nc(-c3ccc(Cl)cc3)cs2)cc1` [SKI-II, 4-((4-(4-chlorophenyl)thiazol-2-yl)amino)phenol], in data set [4], the CC50 at 3 days is over 10 µM. Also, the pEC50 was under 5.00 in data set [2] (Hepatitis B virus, 72 h) and 5.05 in data set [3] (Hepatitis B virus, 72 h).
